The values below come from patent US11572341B2, “Biguanide compound and use thereof” (ImmunoMet Therapeutics Inc., priority 2014, dated 2023).

Where a name gives a salt, the structure may show the parent alone. Read-outs that look alike come from different tables or passages of the source.

For one assay, the system named is HCT116 cells. As to the kind of experiment: Inhibitory effect against cancer cell proliferation (MTT). In kind it is cell-based, human. The note with it: Homo sapiens, HCT-116; HCT116, MTT, 48 hours; read-out: IC50 (uM) @ HCT116. How it is done: The formazane crystals thus formed were dissolved using dimethyl sulfoxide (DMSO) and absorbance of the solution was measured at 560 nm. After culturing for 48 hours, […] synthesized in Examples was indicated as cell viability (%) according to each treated concentration.

Another assay has as its system AMPKa [pT172]. As to the kind of experiment: AMPKa activation [pT172] in MCF7 cell. Format: cell-based.
A further assay concerns A549 cell line. As to the kind of experiment: Oxygen consumption rate (OCR) and extracellular acidification rate (ECAR) in A549 cells. Format: cell-based. As to conditions: Homo sapiens, A549, 3 hrs, control group set at 0%, phenformin set at 100%. The procedure:
A549 cell line (purchased from ATCC-American Type Culture Collection (ATCC)), a lung cancer cell line, is treated with the compounds and OCR and ECAR of the cells are measured and thereby those compounds which show an improved effect compared to phenformin are selected.
The cells are plated on an XF96 cell culture plate containing RPMI1640 medium at a concentration of 5×10^3 cells and cultured in 37° C., 5% CO2 conditions to allow them to be attached thereto.
After 24 hours, the cells are treated with the drug at a concentration of 10 μM for 2 hours, the existing medium is washed with a medium for XF analysis (15 mM D-glucose, 15 mM sodium pyruvate, 4 mM L-glutamine, pH 7.4) to remove the medium using a Prep station and treated again with the drugs, and cultured in 37° C., non-CO2 conditions in the Prep station for 1 hour. While culturing in the Prep station, a sensor cartridge is calibrated for 1 hour and added into a plate containing cells, and OCR and ECAR analyses are performed.
The measured values of OCR and ECAR of the compounds are calculated with reference to the measured values of OCR and ECAR of the control group which is set at 0% and the values of OCR and ECAR of phenformin, which was used as the reference drug, set at 100%, and those compounds which show an improved effect compared to those of phenformin are selected.
From the primarily-selected compounds, those compounds which show an improved effect are treated at various concentrations (0 μM, 0.5 μM, 1 μM, 5 μM, 10 μM, and 20 μM) and their reactivity according to concentration was obtained.

For the compound `Cl.N=C(N)NC(=N)NCc1ccc(F)cc1` [Example 132, N1-(4-fluoro)benzyl Biguanide Hydrochloride], in the assay with HCT116 cells, the concentration for half-maximal inhibition (IC50) was more than 100 µM. Also, the entries for the “AMPKa activation [pT172] (Unit/ml) @ MCF7 cell” value (from here on “AMPKa activation [pT172]”) with AMPKa [pT172] (5 uM) and in the assay on AMPKa [pT172] (50 uM) were 6.1 Unit/ml and 8.1 Unit/ml, respectively. Moreover, the Emax at 10 µM in the assay with A549 cell line (read-out: ECAR (A549, 3 hrs)) is 44.7%; in the assay with A549 cell line (read-out: OCR (A549, 3 hrs)), 39.3%.
`Cl.N=C(N)NC(=N)N1CCN(c2ccccn2)CC1` [Example 127, N1-4-(pyridin-2-yl)piperazine Biguanide Hydrochloride]: the IC50 with HCT116 cells was more than 100 µM. In addition, the “AMPKa activation [pT172]” value in the assay with AMPKa [pT172] (50 uM) came to 5.8 Unit/ml. For the same compound, the Emax at 10 µM was 7% with A549 cell line (read-out: ECAR (A549, 3 hrs)) and 10.2% with A549 cell line (read-out: OCR (A549, 3 hrs)).
On the same counts, the results for `N=C(N)NC(=N)Nc1ccc(Br)cc1` [Example 116, N1-(4-bromo)phenyl Biguanide Hydrochloride] are 101 µM, 25.9 Unit/ml, -24% and 0%.
On the same counts, the results for `Cl.N=C(N)NC(=N)Nc1ccc(N2CCOCC2)cc1` [Example 122, N1-(4-morpholin-4-yl)phenyl Biguanide Hydrochloride] are more than 100 µM, 5.9 Unit/ml, 15.5% and 13.3%.
With `Cl.N=C(N)NC(=N)Nc1ccccc1` [Example 113, N1-phenyl Biguanide Hydrochloride], the IC50 with HCT116 cells was found to be 72.7 µM. In addition, the “AMPKa activation [pT172]” value in the assay with AMPKa [pT172] (5 uM) came to 9.9 Unit/ml; with AMPKa [pT172] (10 uM), 10.1 Unit/ml; in the assay on AMPKa [pT172] (50 uM) it was 28.6 Unit/ml. Further, the Emax at 10 µM with A549 cell line (read-out: ECAR (A549, 3 hrs)) is -24%; with A549 cell line (read-out: OCR (A549, 3 hrs)) it was -3%.
For `Cl.N=C(NCCc1ccccc1Cl)NC(=N)N1CCCCC1` [Example 14, N1-piperidin-N5-2-chloro)phenethyl Biguanide Hydrochloride], the IC50 with HCT116 cells was more than 100 µM. Further, the Emax at 10 µM was 63% in the assay with A549 cell line (read-out: ECAR (A549, 3 hrs)) and -7% in the assay on A549 cell line (read-out: OCR (A549, 3 hrs)).
